In paper PMC11885754, “Engineered phenylalanine hydroxylase coupled with an effective cofactor synthesis and regeneration system for high-yield production of 5-hydroxytryptophan” (Bioresources and Bioprocessing, 2025):

Molecular target: T1, XcPAH (Xanthomonas campestris, UniProt Q8PE27)
T1 construct: gene pah; full length 296 aa, synthesized gene in pET30a (BamHI/XhoI) co-expressed with CvPCD and EcFolM in E. coli BL21(DE3)-derived strain TRP1
T1 sequence (Q8PE27 1-296): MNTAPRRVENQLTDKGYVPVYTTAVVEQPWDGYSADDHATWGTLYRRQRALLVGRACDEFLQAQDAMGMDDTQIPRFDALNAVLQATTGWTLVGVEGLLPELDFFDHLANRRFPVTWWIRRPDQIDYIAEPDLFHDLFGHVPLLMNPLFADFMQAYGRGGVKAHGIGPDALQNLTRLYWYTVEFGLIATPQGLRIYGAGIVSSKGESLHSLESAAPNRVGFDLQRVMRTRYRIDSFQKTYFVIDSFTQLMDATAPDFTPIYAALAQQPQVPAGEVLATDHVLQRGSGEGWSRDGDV
Experiment: whole-cell conversion of L-Phe to L-Tyr, HPLC
Format: cell-based
Conditions: E. coli TRP1 cells, 10 mM L-Phe, endogenous MH4 with CvPCD-EcFolM regeneration, 25 °C, 24 h, pH about 7.0

Structure (SMILES): N[C@@H](Cc1ccccc1)C(=O)O [L-Phe]
- whole-cell conversion of L-Phe to L-Tyr, HPLC: (TRP1-XC1 and TRP1-CT1) were capable of converting L-Phe into L-Tyr
